Measured values as given in patent US9464071B2 (priority 2010, dated 2016).
Values joined by “and” are separate entries in the source; they are usually repeats but may differ in a detail not shown here. Equal values may be shown once. Where a name gives a salt, the structure may show the parent alone.

SMILES	melting point
COc1cc(OC)cc(N(CC2CN(Cc3ccccc3)CCO2)c2ccc3ncc(-c4cnn(C)c4)nc3c2)c1 (stereo not shown)	134 °C
COc1cc(OC)cc(N(CC2CC2)c2ccc3ncc(-c4cnn(CC(=O)N5CCC(O)C5)c4)nc3c2)c1 (stereo not shown)	203.4 °C and 203.41 °C
COc1cc(OC)cc(N(CC2CC2)c2ccc3ncc(-c4cnn(S(C)(=O)=O)c4)nc3c2)c1	207.88 °C
COc1ccc(N(CC2CC2)c2ccc3ncc(-c4cnn(C)c4)nc3c2)cc1OC	190 °C
COc1cc(OC)cc(N(CC2CC2)c2ccc3ncc(-c4cnn(CC(=O)NCCN5CCCC5)c4)nc3c2)c1	162.91 °C
COc1cc(OC)cc(N(CC2CC2)c2ccc3ncc(-c4cnn(C(C)(C)C(=O)N5CCNCC5)c4)nc3c2)c1	127.97 °C
COc1cc(OC)cc(N(Cc2cc(C)on2)c2ccc3ncc(-c4cnn(C)c4)nc3c2)c1	171 °C
COc1cc(OC)cc(N(Cc2ccc(Cl)s2)c2ccc3ncc(-c4cnn(C)c4)nc3c2)c1	140.28 °C
COc1cc(OC)cc(N(c2ccc3ncc(-c4cnn(C)c4)nc3c2)[C@H]2CC[C@@H](NC(C)C)CC2)c1	83 °C
COc1cc(OC)cc(N(Cc2ccc(Cl)s2)c2ccc3ncc(-c4cnn(Cc5ccc(Cl)s5)c4)nc3c2)c1	131.39 °C
COc1cc(OC)cc(N(Cc2ccc(Cl)cc2)c2ccc3ncc(-c4cnn(C)c4)nc3c2)c1	114.12 °C
COc1cc(OC)cc(N(Cc2ccccc2)c2ccc3ncc(-c4cnn(C)c4)nc3c2)c1	133.89 °C
C=Cc1cc(OC)cc(N(CC2CC2)c2ccc3ncc(-c4cnn(C)c4)nc3c2)c1	146 °C
COc1cc(OC)cc(N(c2ccc3ncc(-c4cnn(C)c4)nc3c2)[C@H]2CC[C@H](NC(C)C)CC2)c1	107 °C
COc1cc(OCCO)cc(N(CC2CC2)c2ccc3ncc(-c4cnn(CCS(C)(=O)=O)c4)nc3c2)c1	80 °C
COc1cc(OC)cc(N(CC2COCC(C)(C)N2)c2ccc3ncc(-c4cnn(C)c4)nc3c2)c1 (stereo not shown)	157 °C
COc1cc(OC)cc(N(CC#CC2CCN(C(=O)OC(C)(C)C)CC2)c2ccc3ncc(-c4cnn(C)c4)nc3c2)c1	67 °C
COc1cc(OC)cc(N(Cc2cc3ncccc3n2C)c2ccc3ncc(-c4cnn(C)c4)nc3c2)c1	241 °C
COc1cc(O)cc(N(CCCO)c2ccc3ncc(-c4cn[nH]c4)nc3c2)c1	125 °C
COc1cc(OC)cc(N(CCNC(C)C)c2ccc3ncc(-c4cnn(C5CCN(C(=O)OC(C)(C)C)CC5)c4)nc3c2)c1	66 °C
[2H]C([2H])([2H])Oc1cc(OC([2H])([2H])[2H])cc(N(CC#Cc2ccncc2)c2ccc3ncc(-c4cnn(C(C)C)c4)nc3c2)c1	146 °C
COc1cc(C#N)cc(N(CC2CC2)c2ccc3ncc(-c4cnn(C)c4)nc3c2)c1	143 °C
COc1cc(OC)cc(N(CC2CNC(=O)O2)c2ccc3ncc(-c4cnn(C)c4)nc3c2)c1 (stereo not shown)	157 °C
CNc1cccc(CN(c2cc(OC)cc(OC)c2)c2ccc3ncc(-c4cnn(C)c4)nc3c2)n1	181 °C and 180 °C

SMILES	melting point
COc1cc(OC)cc(N(CC2CNCCO2)c2ccc3ncc(-c4cnn(C)c4)nc3c2)c1 (stereo not shown)	149 °C
COc1cc(OC)cc(N(CC#Cc2cccc(N)n2)c2ccc3ncc(-c4cnn(C)c4)nc3c2)c1	203 °C
COc1cc(O)cc(N(CCN)c2ccc3ncc(-c4cnn(C)c4)nc3c2)c1	186 °C
COc1cccc(N(CCNC(C)C)c2ccc3ncc(-c4cnn(C)c4)nc3c2)c1	247 °C
COc1cc(OC)cc(N(CC#Cc2cc(C(N)=O)ccn2)c2ccc3ncc(-c4cnn(C)c4)nc3c2)c1	204 °C
COc1ccnc(C#CCN(c2ccc3ncc(-c4cnn(C)c4)nc3c2)c2c(Cl)c(OC)cc(OC)c2Cl)n1	130 °C
COc1cc(OC)cc(N(Cc2nc(OC)cc(OC)n2)c2ccc3ncc(-c4cnn(C)c4)nc3c2)c1	127 °C
COC(=O)c1cccnc1C#CCN(c1cc(OC)cc(OC)c1)c1ccc2ncc(-c3cnn(C)c3)nc2c1	156 °C
COc1cc(OC)cc(N(CC#Cc2cccnc2Br)c2ccc3ncc(-c4cnn(C)c4)nc3c2)c1	176 °C
COc1ccnc(C#CCN(c2ccc3ncc(-c4cnn(C)c4)nc3c2)c2c(F)c(OC)cc(OC)c2F)n1	187 °C
COC(=O)c1ccnc(C#CCN(c2cc(OC)cc(OC)c2)c2ccc3ncc(-c4cnn(C)c4)nc3c2)n1	178 °C
COc1cc(OC)cc(N(CC2CN(Cc3ccccc3)CCN2Cc2ccccc2)c2ccc3ncc(-c4cnn(C)c4)nc3c2)c1 (stereo not shown)	148 °C
COc1cc(OC)cc(N(CCN(Cc2ccccc2N)C(C)C)c2ccc3ncc(-c4cnn(C)c4)nc3c2)c1	70 °C
COc1cc(OC)cc(N(CC2CCN(C(C)C)CC2)c2ccc3ncc(-c4cnn(C)c4)nc3c2)c1	168 °C and 168.08 °C
COc1cc(OC)cc(N(CCCN2CCC[C@@H]2CC#N)c2ccc3ncc(-c4cnn(C)c4)nc3c2)c1 (as salt: HCl)	140 °C
COc1cc(OC)cc(N(CCCN2CCC[C@H]2CC#N)c2ccc3ncc(-c4cnn(C)c4)nc3c2)c1 (as salt: HCl)	135 °C
COc1cc(OC)cc(N(CCCN2CCC(F)(F)C2)c2ccc3ncc(-c4cn[nH]c4)nc3c2)c1 (as salt: HCl)	215.29 °C
COc1cc(OC)cc(N(Cc2cc[nH]n2)c2ccc3ncc(-c4cnn(C)c4)nc3c2)c1 (as salt: HCl)	203 °C
COc1cc(OC)cc(N(CCCn2cc(C)nc2C)c2ccc3ncc(-c4cnn(C)c4)nc3c2)c1 (as salt: HCl)	157 °C
COc1cc(OC)cc(N(CCN2CCC(CN)CC2)c2ccc3ncc(-c4cnn(C)c4)nc3c2)c1 (as salt: HCl)	151 °C
COc1cc(OC)cc(N(Cc2nc(C)c[nH]2)c2ccc3ncc(-c4cnn(C)c4)nc3c2)c1 (as salt: HCl)	188 °C
COc1cc(OC)cc(N(CCN2C[C@H](C)C[C@@H](C)C2)c2ccc3ncc(-c4cnn(C)c4)nc3c2)c1 (as salt: HCl) [Compound 40]	80 °C
COc1cc(OC)cc(N(CCN2C[C@@H]3C[C@H]2CN3)c2ccc3ncc(-c4cnn(C)c4)nc3c2)c1 (as salt: HCl) [Compound 621]	> 260 °C
COc1cc(OC)cc(N(CCNC(C)C)c2ccc3ncc(-c4c(C)nn(C)c4C)nc3c2)c1 (as salt: HCl) [Compound 623]	133 °C

The next lines start with the values.

melting point	SMILES
101.91 °C	COCCn1cc(-c2cnc3ccc(N(CC4CC4)c4cc(OC)cc(OC)c4)cc3n2)cn1
149.27 °C	COc1cc(OC)cc(N(CC2CC2)c2ccc3ncc(-c4cnn(C(C)(C)C(=O)NCCO)c4)nc3c2)c1
167.45 °C	COc1cc(OC)cc(N(CC2CC2)c2ccc3ncc(-c4cnn(CC(=O)NCCO)c4)nc3c2)c1
160.27 °C	COc1cc(OC)cc(N(CC2CC2)c2ccc3ncc(-c4cnn(CCNS(=O)(=O)N(C)C)c4)nc3c2)c1
193.59 °C	CNCCN(c1cc(OC)cc(OC)c1)c1ccc2ncc(-c3cn[nH]c3)nc2c1
184 °C	COc1cc(OC)cc(N(CCN)c2ccc3ncc(-c4cn[nH]c4)nc3c2)c1
80 °C	COc1cc(OCCO)cc(N(CCCO)c2ccc3ncc(-c4cnn(C)c4)nc3c2)c1
131.93 °C	CNCCN(c1cc(OC)cc(OC)c1)c1ccc2ncc(-c3cnn(CCO)c3)nc2c1
201.43 °C	COc1cc(OC)cc(N(CC(=O)NCCO)c2ccc3ncc(-c4cnn(C)c4)nc3c2)c1
168 °C	COc1cc(OC)cc(N(CC(F)CN)c2ccc3ncc(-c4cnn(C)c4)nc3c2)c1 (stereo not shown)
123.12 °C and 126 °C	COc1cc(OC)cc(N(CCCNCC(F)(F)F)c2ccc3ncc(-c4cnn(C)c4)nc3c2)c1
103 °C and 103.14 °C	CNCCn1cc(-c2cnc3ccc(N(CC4CC4)c4cc(OC)cc(OC)c4)cc3n2)cn1
123 °C	COc1cc(OC)cc(N(CCNCC(O)C(F)(F)F)c2ccc3ncc(-c4cnn(C)c4)nc3c2)c1 (stereo not shown)
175 °C	COc1cc(OC)cc(N(CCCNCC(F)(F)F)c2ccc3ncc(-c4cnn(CCCN)c4)nc3c2)c1
143 °C	COc1cc(OC)cc(N(CCF)c2ccc3ncc(-c4cnn(C)c4)nc3c2)c1
176 °C	COc1cc(OC)cc(N(CCO)c2ccc3ncc(-c4cnn(C)c4CN(C)C)nc3c2)c1
> 260 °C	COc1cc(OC)cc(N(CCP(=O)(O)O)c2ccc3ncc(-c4cnn(C)c4)nc3c2)c1 (as salt: HBr)
166 °C	COc1cc(OC)cc(N(CCNC(C)C)c2ccc3ncc(-c4cnn(CC5CCOCC5)c4)nc3c2)c1 (as salt: HCl)
160 °C	COc1cc(OC)cc(N(CCNC(C)C)c2ccc3ncc(-c4cnn(C5CCOC5)c4)nc3c2)c1 (stereo not shown) (as salt: HCl)
197 °C	CCn1cc(-c2cnc3ccc(N(CCCN4CCCC4=O)c4cc(OC)cc(OC)c4)cc3n2)cn1 (as salt: HCl)
224 °C	CNCC(O)CN(c1cc(OC)cc(OC)c1)c1ccc2ncc(-c3cnn(C)c3)nc2c1 (stereo not shown) (as salt: HCl)
130 °C	COc1cc(OC)cc(N(CCn2cccc2)c2ccc3ncc(-c4cnn(C)c4)nc3c2)c1 (as salt: HCl)
183.2 °C	COc1cc(OCCO)cc(N(CC2CC2)c2ccc3ncc(-c4cnn(CCO)c4)nc3c2)c1 (as salt: HCl) [Compound 131, 2-[4-(7-{(Cyclopropylmethyl)[3-(2-hydroxyethoxy)-5-methoxyphenyl]amino}quinoxalin-2-yl)-1H-pyrazol-1-yl]ethanol]
184 °C	CNC(=O)Cn1cc(-c2cnc3ccc(N(CCNC(C)C)c4cc(OC)cc(OC)c4)cc3n2)cn1 (as salt: HCl) [Compound 134, 2-(4-{7-[(3,5-Dimethoxyphenyl){2-[(1-methylethyl)amino]ethyl}amino]quinoxalin-2-yl}-1H-pyrazol-1-yl)-N-methylacetamide]
194 °C	CCn1cc(-c2cnc3ccc(N(CCNC(C)C)c4cc(OC)cc(OC)c4)cc3n2)cn1 (as salt: HCl) [Compound 135, N-(3,5-Dimethoxyphenyl)-N-[3-(1-ethyl-1H-pyrazol-4-yl)quinoxalin-6-yl]-N′-(1-methylethyl)ethane-1,2-diamine]
